Results reported in patent US20040219220A1, “Therapeutic agents” (priority 2001, published 2004).

Key:
[1] = Extruder temperature/throughput matrix: ibuprofen content and degradation products after melt extrusion (Example 25); assay type: physicochemical; conditions: 95 C to 130 C, 102 kg/hour to 216 kg/hour
Protocol: Further trials using the method of Example 1 but under process conditions as shown in Table 3 were conducted to determine the maximum output from the extruder by varying barrel temperature and powder feed rates, as shown in Table IIA.10.
Once the required extruder barrel temperature had been reached, the extruder was started and allowed to run for 15 minutes in order to equilibrate prior to sample collection.
Samples were collected for analysis to determine the level of degradation products formed.

[2] = Extruder barrel temperature profile: ibuprofen content and degradation products after melt extrusion (Example 24); assay type: physicochemical; conditions: up to a maximum extruder setting of 140 C
Protocol: The method set out in Example 1 was used. The extruder screw speed was set to a constant 600 rpm. The powder feed rate was also set to a constant value. to give a constant feed rate of powder into the extruder. The product of each trial was analysed to determine the level of the two major ibuprofen degradation products: 2-(4-isobutyrylphenyl) propionic acid (BTS 47711) and 4-isobutylacetophenone (BTS 40655).

SMILES: CC(C)Cc1ccc(C(C)C(=O)O)cc1 (racemic) [ibuprofen]
- degradation of ibuprofen over extruder barrel temperatures and throughputs [1]: no evidence of degradation
- ibuprofen degradation as a result of the melt extrusion process [2]: no evidence of ibuprofen degradation
